The source of these data is ChEMBL document CHEMBL1201862, “PubChem BioAssay data set” (2004).

Some test systems named below: RPMI-8226; BT-549; SF-295; LOX IMVI; NCI-H226; UACC-257; A549; T47D; HT-29; SN12C; SK-MEL-2; MDA-MB-231; NCI/ADR-RES; Malme-3M; EKVX; CAKI-1; MOLT-4; A498; HL-60.
Common to all, as to assay: DTP human tumour cell line panel, 48 h

As a reminder, the GI50 is the concentration at which growth is held to half of that of the control.

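Assay format: 96-well plates, 48-hour exposure. Here, GI50 denotes the concentration required for 50% inhibition of growth.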 Activity calls are given as the source filed them. Cut-off read from the data, not from the text of the source: active = GI50 up to about 1.1 µM and inactive = higher.

Turning to `Fc1cccc(Cl)c1C1SCc2nc3cc4ccccc4cc3n21` (configuration not stated), the GI50 with RPMI-8226 is > 100 µM (inactive); in the test with BT-549, > 100 µM (inactive); with SF-295, 62.7 µM (inactive); with LOX IMVI, > 100 µM (inactive); in the test with NCI-H226 it was 33.8 µM (inactive); with UACC-257, > 100 µM (inactive). In addition, the GI50 with A549 is > 100 µM (inactive); in the test with T47D, > 100 µM (inactive); in the test with HT-29, 89.1 µM (inactive); with SN12C, 61.1 µM (inactive); in the test on SK-MEL-2 it was > 100 µM (inactive); in the test with MDA-MB-231, 61.5 µM (inactive). Also, the GI50 in the test on NCI/ADR-RES was 64.6 µM (inactive); with Malme-3M, 43.4 µM (inactive); in the test on EKVX, > 100 µM (inactive); in the test on CAKI-1, 99.1 µM (inactive); with MOLT-4, > 100 µM (inactive).

As to `O=C(O)C12C3CCC(O3)C1(C(=O)O)C1CCC2O1` (configuration not stated), the GI50 in the test with A498, with RPMI-8226, in the test on BT-549, with SF-295, with LOX IMVI and in the test on NCI-H226 was > 100 µM (inactive) each time. Besides, the GI50 in the test on UACC-257, in the test on A549, in the test on T47D, in the test with HT-29, in the test on SN12C and with SK-MEL-2 was > 100 µM (inactive) in each case. Besides, the GI50 with NCI/ADR-RES, in the test on Malme-3M, with HL-60, in the test with CAKI-1 and in the test with MOLT-4 was > 100 µM (inactive) throughout.

In the case of `CCOC(=O)Nc1sc2c(c1C#N)CCCC2`, the GI50 with A498 was 85.3 µM (inactive); in the test on RPMI-8226, 33 µM (inactive); in the test with BT-549, 49 µM (inactive); in the test with SF-295, > 100 µM (inactive); with LOX IMVI it was 63.8 µM (inactive); with NCI-H226, 89.5 µM (inactive). The GI50 with UACC-257 was > 100 µM (inactive); with HT-29 it was > 100 µM (inactive); in the test with SN12C, > 100 µM (inactive); with SK-MEL-2, > 100 µM (inactive); in the test on MDA-MB-231, 71.3 µM (inactive); in the test with Malme-3M, > 100 µM (inactive). Further, the GI50 in the test on HL-60 is 45.3 µM (inactive); in the test on EKVX, 25.9 µM (inactive); with CAKI-1, > 100 µM (inactive); with MOLT-4 it was 62.5 µM (inactive).

As to `COc1cccc(C2c3cc4c(cc3OC(N3CCCCC3)C2C)OCO4)c1OC` (configuration not stated), the GI50 in the test with A498 is 9.42 µM (inactive); in the test with RPMI-8226 it was 3.44 µM (inactive); in the test on BT-549, 9.06 µM (inactive); in the test with SF-295, 4.27 µM (inactive); in the test on LOX IMVI it was 4.85 µM (inactive); in the test with NCI-H226 it was 3.93 µM (inactive). Further, the GI50 in the test on UACC-257 is 5.94 µM (inactive); in the test on A549 it was 5.14 µM (inactive); with T47D, 4.1 µM (inactive); in the test with HT-29, 4.58 µM (inactive); in the test on SN12C it was 5.73 µM (inactive); in the test with SK-MEL-2, 5.96 µM (inactive). Besides, the GI50 was 14.3 µM (inactive) in the test on MDA-MB-231; 11.9 µM (inactive) with Malme-3M; 13.7 µM (inactive) with EKVX; 2.58 µM (inactive) with CAKI-1; 4.42 µM (inactive) with MOLT-4.

With `COc1cc(C2C(Cl)C(=O)N2NC(=O)c2ccc(NC(C)=O)cc2OC)ccc1O` (configuration not stated), the GI50 in the test on A498 is 19.4 µM (inactive); with RPMI-8226, 1.94 µM (inactive); with BT-549, 17.3 µM (inactive); with SF-295 it was < 0.01 µM (active); in the test on LOX IMVI, 7.28 µM (inactive); in the test with NCI-H226 it was 10.6 µM (inactive). Besides, the GI50 in the test with A549 was 32.1 µM (inactive); with T47D, 20.9 µM (inactive); with HT-29, 15.1 µM (inactive); in the test on SN12C, 17.9 µM (inactive); in the test with SK-MEL-2, 14.5 µM (inactive); with NCI/ADR-RES, 37.5 µM (inactive). The GI50 with Malme-3M was 24.4 µM (inactive); in the test with HL-60, 20.3 µM (inactive); in the test on EKVX it was 13.6 µM (inactive); in the test with CAKI-1, 31.1 µM (inactive); in the test on MOLT-4 it was 3.96 µM (inactive).

Consider `COc1cc(CCCOC(=O)/C=C/c2ccc(O)c(O)c2)cc(O)c1O`, for which the GI50 is > 100 µM (inactive) with A498; 27.4 µM (inactive) with RPMI-8226; 30.7 µM (inactive) in the test on BT-549; 35.1 µM (inactive) in the test with SF-295; 17.6 µM (inactive) with LOX IMVI; > 100 µM (inactive) in the test on NCI-H226. The GI50 in the test with UACC-257 was > 100 µM (inactive); in the test with A549, 69.2 µM (inactive); in the test on T47D, 27.9 µM (inactive); in the test with HT-29 it was 31.6 µM (inactive); in the test on SN12C it was 29.2 µM (inactive); in the test with SK-MEL-2, 83.2 µM (inactive). For the same compound, the GI50 with MDA-MB-231 was 28.8 µM (inactive); in the test with Malme-3M, 74 µM (inactive); in the test on HL-60 it was 25.5 µM (inactive); with EKVX, > 100 µM (inactive); in the test with CAKI-1 it was 58.3 µM (inactive); with MOLT-4, 27.5 µM (inactive).

Take `O=c1cc(-c2ccccc2)oc2cc(Oc3nnnn3-c3ccccc3)ccc12`: the GI50 was 28.3 µM (inactive) in the test on A498; 51.4 µM (inactive) with RPMI-8226; 21.4 µM (inactive) in the test on BT-549; 46.2 µM (inactive) in the test on SF-295; 38.9 µM (inactive) with LOX IMVI; 9.42 µM (inactive) in the test on NCI-H226. Also, the GI50 in the test on UACC-257 is 32.5 µM (inactive); with A549, 31.6 µM (inactive); in the test on T47D, 11.7 µM (inactive); in the test with HT-29 it was 57.7 µM (inactive); in the test on SN12C, 60.8 µM (inactive); in the test on SK-MEL-2 it was 28.4 µM (inactive). Further, the GI50 in the test on MDA-MB-231 is 42.6 µM (inactive); in the test on Malme-3M, 33.4 µM (inactive); in the test with HL-60, 30.5 µM (inactive); in the test with EKVX, 35.8 µM (inactive); in the test on CAKI-1, 6.14 µM (inactive); in the test on MOLT-4, 32.4 µM (inactive).

For the compound `CC(=O)OC[C@H]1CN(OC(C)=O)C[C@@H](n2cc(C)c(=O)[nH]c2=O)O1`, the GI50 in the test on A498, in the test on RPMI-8226, with BT-549, in the test on SF-295, in the test on NCI-H226 and with UACC-257 was > 100 µM (inactive) in each case. The GI50 in the test on A549, in the test with T47D, in the test with SN12C, in the test on SK-MEL-2, in the test with MDA-MB-231 and in the test on HL-60 was > 100 µM (inactive) throughout. Also, the GI50 in the test with EKVX, with CAKI-1 and in the test with MOLT-4 was > 100 µM (inactive) in each case.

As to `Cc1cc(Cl)ccc1/N=N/C(=O)NNc1ccc(Cl)cc1C`, the GI50 with A498 was 9.06 µM (inactive); in the test with RPMI-8226 it was 22.2 µM (inactive); in the test with BT-549 it was 15.6 µM (inactive); with LOX IMVI, 16.9 µM (inactive); in the test on NCI-H226, 16.4 µM (inactive); in the test with UACC-257, 17.1 µM (inactive). In addition, the GI50 was 12.9 µM (inactive) with A549; 5.87 µM (inactive) in the test with T47D; 21.3 µM (inactive) in the test with HT-29; 15.4 µM (inactive) with SN12C; 14.1 µM (inactive) in the test with SK-MEL-2; 11.7 µM (inactive) in the test on MDA-MB-231. Besides, the GI50 in the test on Malme-3M was 21 µM (inactive); in the test with HL-60 it was 20.3 µM (inactive); in the test on MOLT-4 it was 14 µM (inactive).

As to `[O-][S+]1CC[S+]([O-])CC[S+]([O-])CC1` (configuration not stated), the GI50 in the test with BT-549, with SF-295, with LOX IMVI, with UACC-257, with A549 and in the test on T47D was > 100 µM (inactive) throughout. Besides, the GI50 in the test with HT-29, in the test with SN12C, in the test on MDA-MB-231, in the test with NCI/ADR-RES, with HL-60 and in the test with EKVX was > 100 µM (inactive) in each case. The GI50 with MOLT-4 is > 100 µM (inactive).

As to `Oc1ccccc1C(c1cc2c(cc1O)OCO2)N1CCOCC1` (configuration not stated), the GI50 was 22.9 µM (inactive) in the test with A498; 12.8 µM (inactive) in the test on RPMI-8226; 16.6 µM (inactive) with BT-549; 20.6 µM (inactive) in the test with SF-295; 17.1 µM (inactive) in the test with LOX IMVI; 35.6 µM (inactive) in the test with NCI-H226. The GI50 in the test with UACC-257 is 19.2 µM (inactive); in the test with A549 it was 23 µM (inactive); with T47D it was 16.7 µM (inactive); with HT-29 it was 18.5 µM (inactive); with SN12C it was 19.1 µM (inactive); in the test with SK-MEL-2 it was 17.8 µM (inactive). Besides, the GI50 in the test with MDA-MB-231 was 21 µM (inactive); with Malme-3M, 17.8 µM (inactive); in the test with HL-60, 2.24 µM (inactive); with EKVX, 50.9 µM (inactive); in the test with CAKI-1, 19.7 µM (inactive); in the test with MOLT-4 it was 8.24 µM (inactive).

`COCOC1C=CCCCC2=CC(C)=C(CC1)O2` (configuration not stated): the GI50 in the test on A498, in the test on RPMI-8226, in the test with BT-549, in the test with SF-295, with LOX IMVI and with NCI-H226 was > 100 µM (inactive) each time. Besides, the GI50 in the test on UACC-257 was > 100 µM (inactive); in the test with A549 it was > 100 µM (inactive); with HT-29, 99.1 µM (inactive); with SN12C, > 100 µM (inactive); in the test with MDA-MB-231 it was > 100 µM (inactive); with NCI/ADR-RES, > 100 µM (inactive). Further, the GI50 with Malme-3M was > 100 µM (inactive); with EKVX it was > 100 µM (inactive); with CAKI-1, > 100 µM (inactive); in the test on MOLT-4 it was 42.3 µM (inactive).
